{"source": "ChEMBL document CHEMBL1134028", "about": "“1,2,5-Thiadiazole derivatives are potent and selective ligands at human 5-HT1A receptors” (Bioorg Med Chem Lett, 2001)", "key": {"[1]": {"molecular_target": "T1, 5-hydroxytryptamine receptor 1A (Homo sapiens) (UniProt P08908)", "T1 sequence (whole entry)": "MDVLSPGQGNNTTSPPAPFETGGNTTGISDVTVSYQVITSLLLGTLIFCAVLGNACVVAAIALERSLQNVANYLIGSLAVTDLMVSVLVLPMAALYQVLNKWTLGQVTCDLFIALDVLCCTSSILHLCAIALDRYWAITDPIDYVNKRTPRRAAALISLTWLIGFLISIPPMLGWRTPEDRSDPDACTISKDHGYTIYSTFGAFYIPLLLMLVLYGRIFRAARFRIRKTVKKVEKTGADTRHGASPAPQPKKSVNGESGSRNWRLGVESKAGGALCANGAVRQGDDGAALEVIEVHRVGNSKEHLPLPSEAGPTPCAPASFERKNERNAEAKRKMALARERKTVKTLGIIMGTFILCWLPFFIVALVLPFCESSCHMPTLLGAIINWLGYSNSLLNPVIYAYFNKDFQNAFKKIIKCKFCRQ", "assay": "Ability to displace [3H]-8-OH-DPAT from CHO cells stably transfected with human 5-hydroxytryptamine 1A receptor at a concentration of 1 uM", "assay_type": "cell-based"}, "[2]": {"molecular_target": "T2, 5-hydroxytryptamine receptor 1A (Homo sapiens, UniProt P08908)", "T2 sequence (P08908 whole entry)": "T1 sequence (whole entry)", "assay": "Ability to displace [3H]8-OH-DPAT from CHO cells stably transfected with human 5-hydroxytryptamine 1A receptor", "assay_type": "cell-based"}, "[3]": {"molecular_target": "Adrenergic receptor alpha-1 (Rattus norvegicus) (UniProt P15823+P23944+P43140)", "assay": "Compound was tested for percent inhibition at Alpha-1 adrenergic receptor in rat at 100 nM concentration"}, "CHO [4]": {"test_system": "CHO", "assay": "Inhibitory activity determined by the compound ability to reverse the forskolin-stimulated turnover of cAMP in CHO cells", "assay_type": "functional, cell-based", "settings": "Cricetulus griseus"}, "[5]": {"molecular_target": "D(2) dopamine receptor (Rattus norvegicus) (UniProt P61169)", "sequence (P61169 whole entry)": "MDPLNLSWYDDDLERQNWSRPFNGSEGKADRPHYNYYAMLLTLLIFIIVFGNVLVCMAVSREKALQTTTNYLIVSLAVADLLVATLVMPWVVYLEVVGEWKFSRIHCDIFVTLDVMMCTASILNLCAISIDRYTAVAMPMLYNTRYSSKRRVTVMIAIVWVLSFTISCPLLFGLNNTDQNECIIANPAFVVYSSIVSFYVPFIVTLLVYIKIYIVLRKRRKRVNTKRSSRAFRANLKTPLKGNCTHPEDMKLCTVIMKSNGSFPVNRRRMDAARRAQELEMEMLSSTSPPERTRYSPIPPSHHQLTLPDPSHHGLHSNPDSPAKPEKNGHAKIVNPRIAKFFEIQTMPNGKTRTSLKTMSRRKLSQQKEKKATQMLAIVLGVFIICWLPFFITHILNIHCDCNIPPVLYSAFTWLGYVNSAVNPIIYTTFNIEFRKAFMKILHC", "assay": "Percent inhibition towards dopamine D2 receptor at 100 nM concentration"}, "CHO [6]": {"test_system": "CHO", "assay": "Effective concentration for intrinsic activity determined by the compound ability to reverse the forskolin-stimulated turnover of cAMP in CHO cells", "settings": "Cricetulus griseus"}, "CHO [7]": {"test_system": "CHO", "assay": "Intrinsic activity determined by the compound ability to reverse the forskolin-stimulated turnover of cAMP in CHO cells", "assay_type": "functional", "settings": "Cricetulus griseus"}, "D(4) dopamine receptor": {"molecular_target": "T3, D(4) dopamine receptor (Homo sapiens, UniProt P21917)", "T3 sequence (P21917 whole entry)": "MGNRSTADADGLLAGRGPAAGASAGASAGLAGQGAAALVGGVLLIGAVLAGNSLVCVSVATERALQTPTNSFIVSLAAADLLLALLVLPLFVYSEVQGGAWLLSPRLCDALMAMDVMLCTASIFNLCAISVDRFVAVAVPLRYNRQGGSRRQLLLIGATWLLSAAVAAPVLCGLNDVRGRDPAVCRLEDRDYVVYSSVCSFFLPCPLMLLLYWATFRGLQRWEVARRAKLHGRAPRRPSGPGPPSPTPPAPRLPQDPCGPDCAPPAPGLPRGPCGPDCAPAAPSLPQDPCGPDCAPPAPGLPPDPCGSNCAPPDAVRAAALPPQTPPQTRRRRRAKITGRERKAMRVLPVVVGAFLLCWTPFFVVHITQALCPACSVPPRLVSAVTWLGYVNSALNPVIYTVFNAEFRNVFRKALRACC", "assay": "Percent inhibition towards dopamine D4 receptor"}, "D(2) dopamine receptor": {"molecular_target": "D(2) dopamine receptor (Rattus norvegicus, UniProt P61169)", "sequence (P61169 whole entry)": "as the sequence (P61169 whole entry) above", "assay": "Percent inhibition towards dopamine D2 receptor"}, "D(3) dopamine receptor": {"molecular_target": "D(3) dopamine receptor (Homo sapiens, UniProt P35462)", "sequence (P35462 whole entry)": "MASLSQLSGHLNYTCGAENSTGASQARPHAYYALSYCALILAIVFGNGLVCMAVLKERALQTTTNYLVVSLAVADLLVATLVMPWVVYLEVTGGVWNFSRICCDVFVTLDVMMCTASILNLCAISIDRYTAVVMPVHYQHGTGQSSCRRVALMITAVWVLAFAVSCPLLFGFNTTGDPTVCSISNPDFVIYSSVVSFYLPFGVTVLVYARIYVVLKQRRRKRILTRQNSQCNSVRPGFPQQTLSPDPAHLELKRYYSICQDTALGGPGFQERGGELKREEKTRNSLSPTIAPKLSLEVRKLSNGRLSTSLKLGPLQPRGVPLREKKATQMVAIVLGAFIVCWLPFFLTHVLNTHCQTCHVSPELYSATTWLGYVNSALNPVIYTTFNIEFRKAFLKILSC", "assay": "Percent inhibition towards dopamine D3 receptor"}}}
{"smiles": "O=C(N[C@@H](Cc1ccccc1)CN1CCN(c2nsnc2Cl)CC1)c1ccccn1", "values": [{"measurement": "inhibition", "setting": "[1]", "result": 47, "unit": "%"}]}
{"smiles": "COc1nsnc1N1CCN(C[C@@H](Cc2ccccc2)N(C)C(=O)C2CCCCC2)CC1", "values": [{"measurement": "Ki", "setting": "[2]", "result": 1.5, "unit": "nM"}, {"measurement": "inhibition", "setting": "[3]", "result": 0, "unit": "%"}, {"measurement": "IC50", "setting": "CHO [4]", "result": 72.7, "unit": "nM"}, {"measurement": "inhibition", "setting": "[5]", "result": 11, "unit": "%"}]}
{"smiles": "CN(C(=O)C1CCCCC1)[C@H](Cc1ccccc1)CN1CCN(c2nsnc2Cl)CC1", "values": [{"measurement": "inhibition", "setting": "[3]", "result": 0, "unit": "%"}, {"measurement": "IC50", "setting": "CHO [4]", "result": 49.3, "unit": "nM"}]}
{"smiles": "O=C(N[C@@H](Cc1ccccc1)CN1CCN(c2nsnc2Cl)CC1)C1CCCCC1", "values": [{"measurement": "Ki", "setting": "[2]", "result": 0.8, "unit": "nM"}, {"measurement": "inhibition", "setting": "[3]", "result": 17, "unit": "%"}, {"measurement": "EC50", "setting": "CHO [6]", "result": 4.6, "unit": "nM"}, {"measurement": "Emax", "setting": "CHO [7]", "result": 93, "unit": "%"}]}
{"smiles": "COc1nsnc1N1CCN(C[C@@H](Cc2ccccc2)N(C)C(=O)c2ccccc2)CC1", "values": [{"measurement": "Ki", "setting": "[2]", "result": 9.9, "unit": "nM"}, {"measurement": "inhibition", "setting": "[3]", "result": 15, "unit": "%"}, {"measurement": "IC50", "setting": "CHO [4]", "result": 6.4, "unit": "nM"}, {"measurement": "Emax", "setting": "CHO [7]", "result": 0, "unit": "%"}]}
{"smiles": "COc1nsnc1N1CCN(C[C@@H](Cc2ccccc2)N(C)C(=O)N2CCOCC2)CC1", "values": [{"measurement": "inhibition", "setting": "[1]", "result": 46, "unit": "%"}]}
{"smiles": "COc1nsnc1N1CCN(C[C@@H](Cc2cccnc2)NC(=O)C2(C)CCCCC2)CC1", "values": [{"measurement": "Ki", "setting": "[2]", "result": 3, "unit": "nM"}, {"measurement": "IC50", "setting": "CHO [4]", "result": 113, "unit": "nM"}, {"measurement": "Emax", "setting": "CHO [7]", "result": 0, "unit": "%"}, {"measurement": "IC50", "setting": "D(4) dopamine receptor", "result": 1100, "unit": "nM"}, {"measurement": "IC50", "setting": "D(2) dopamine receptor", "result": 3520, "unit": "nM"}, {"measurement": "IC50", "setting": "D(3) dopamine receptor", "result": 489, "unit": "nM"}]}
